Source: patent US9352015B2, “Antimicrobial peptides” (priority 2009, dated 2016)
Values after ≈ are worked out from the molar mass of the structure shown. Values joined by “and” are separate entries in the source; they are usually repeats but may differ in a detail not shown here. Identical values can stand only once. Like-named read-outs stand apart in the source and are kept apart here.

Legend:
[1] = Hemolytic activity against human erythrocytes (HC50 / MHC, microtiter dilution); type: cell-based; conditions: human, 1% human erythrocytes, pH 7.4
Method: Hemoglobin release was determined spectrophotometrically at 570 nm. The hemolytic activity was determined as the peptide concentration that caused 50% hemolysis of erythrocytes after 18 h (HC50). […] HC50 was determined by a plot of peptide concentration versus percent lysis.

Acinetobacter baumannii = type: cell-based
Method: (§1) Minimal inhibitory concentrations (MICs) are determined using a standard microtiter dilution method, with 3 sets of determinations, in LB (Luria-Bertani) no-salt medium (10 g of tryptone and 5 g of yeast extract per liter). In some cases, Mueller Hinton (MH) medium or Brain Heart Infusion (BHI) medium is used.
(§2) Briefly, cells were grown overnight at 37° C. in LB and diluted in the same medium. Serial dilutions of the peptides are added to the microtiter plates in a volume of 100 μl followed by 10 μl of bacteria to give a final inoculum of 5×10^5 colony-forming units/ml. Plates are incubated at 37° C. for 24 hours and MICs determined as the lowest peptide concentration that inhibited growth. Alternatively, minimal inhibitory concentrations are determined using a standard microtiter dilution method in a Mueller-Hinton (MH) medium. Briefly, cells are grown overnight at 37° C. in MH broth and diluted in the same medium. In some cases, serial dilutions of the peptides are added to the microtiter plates in a volume of 100 μl followed by 10 μl of bacteria to give a final inoculum of 1×10^5 colony-forming units/ml. Plates are incubated at 37° C. for 24 hours and MICs are determined as the lowest peptide concentration that inhibited growth.
The biological activities of these six peptide analogs was determined against 11 clinical isolated of Acinetobacter baumannii (Table 9). Please note that the activities are reported in micromolar rather than microgram/ml. This allows a direct comparison on a molar basis with the effectiveness of molecules of different molecular weights whether peptides disclosed herein or antibiotics which in general are smaller in molecular mass. […] These are the highest antimicrobial activities observed in studies of antimicrobial peptides derived by modifying the peptide sequence of SEQ ID NO:24 (D1). D22 has the best hemolytic activity of the six analogs (D17-D22) and a therapeutic index of […] compared to […] for D1 (Table 9). D22 has no apparent advantage over D1 as determined in these experiments.

[2] = system: Methicillin Resistant Staphylococcus aureus (MRSA) and Staphylococcus aureus; type: cell-based
Method: as §1, §2
Identification of Antimicrobial Peptides for Gram-positive Bacteria. In a manner similar to testing against gram-negative bacteria, experiments were carried out to screen the 14 peptides used to identify antimicrobial peptides with significant activity against A. baumanii shown above against 20 different clinical isolates of Methicillin Resistant Staphylococcus aureus (MRSA) and Staphylococcus aureus.

[3] = RP-HPLC retention as measure of overall peptide hydrophobicity; type: physicochemical; conditions: pH 2, room temperature
Method: Crude and purified peptides were analyzed on an Agilent 1100 series liquid chromatograph (Little Falls, Del.). Runs were performed on a Zorbax 300 SB-C8 column (150×2.1 mm I.D.; 5 μm particle size, 300 Å pore size) from Agilent Technologies using linear AB gradient (1% acetonitrile/min) and a flow rate of 0.25 ml/min, where eluant A was 0.2% aqueous TFA, pH 2 and eluant B was 0.2% TFA in acetonitrile.

[4] = RP-HPLC temperature profiling (peptide self-association parameter PA); type: physicochemical; conditions: RP-HPLC temperature profiling 5-80° C., pH 2, relative to control peptide C
Method: Temperature profiling analyses were performed on the same column in 3° C. increments, from 5° C. to 80° C., using a linear AB gradient of 0.5% acetonitrile/min, as described previously (30, 53, 92, 93).
Peptide self-association (i.e., the ability to oligomerize/dimerize) in aqueous solution is a very important parameter for antimicrobial activity (53, 92, 93). Without wishing to be bound by any particular theory, the present inventors postulated that monomeric random-coil antimicrobial peptides are best suited to pass through the capsule and cell wall of microorganisms prior to penetration into the cytoplasmic membrane, induction of α-helical structure and disruption of membrane structure to kill target cells (93). Thus, if the self-association ability of a peptide in aqueous media is too strong (e.g., forming stable folded dimers through interaction of their non-polar faces) this could decrease the ability of the peptide to dissociate to monomer, in addition oligomerization of the peptide can prevent it from effectively passing through the capsule and cell wall to reach the membrane. The ability of the peptides in the present study to self-associate was determined by the technique of RP-HPLC temperature profiling at pH 2 (29, 30, 38). The reason pH 2 is used to determine self-association of cationic AMPs is that highly positively charged peptides are frequently not eluted from reversed-phase columns at pH 7 due to non-specific binding to negatively charged silanols on the column matrix. This is not a problem at pH 2 since the silanols are protonated (i.e., neutral) and non-specific electrostatic interactions are eliminated. At pH 2, the interactions between the peptide and the reversed-phase matrix involve ideal retention behavior, i.e., only hydrophobic interactions between the preferred binding domain (nonpolar face) of the amphipathic molecule and the hydrophobic surface of the column matrix are present (39). […] Control peptide C is a monomeric random coil peptide in both aqueous and hydrophobic media; thus, its linear decrease in peptide retention behavior with increasing temperature within the range of 5° C. to 80° C. represents only the general effects of temperature due to greater solute diffusivity and enhanced mass transfer between the stationary and mobile phase at higher temperatures (55). To allow for these general temperature effects, the data for the control peptide was subtracted from each temperature profile as shown in FIG. 2B. Thus, the peptide self-association parameter, PA, represents the maximum change in peptide retention time relative to the random coil peptide C. Note that the higher the PA value, the greater the self-association.

Pseudomonas aeruginosa = conditions: for MIC PAO 1: 37° C., 24 h, strain PAO1; for MIC GM (geometric mean of the MIC values): six P. aeruginosa strains; for MIC CP 204: strain CP204; for MIC M 2: strain M2; for MIC PA 14: strain PA14; for MIC PAK: strain PAK; for MIC WR 5: strain WR5

Compound	HC50 at 18 h [1]	MIC GM (geometric mean) (Acinetobacter baumannii) [µM]	MIC GM (geometric mean) [2] [µM]	Hydrophobicity (retention time in RP-HPLC) [3]	PA (dimerization / self-association parameter) [4]	MIC PAO 1 (Pseudomonas aeruginosa; Brain Heart Infusion medium) [µg/mL]	MIC GM (geometric mean of the MIC values) (Pseudomonas aeruginosa; Brain Heart Infusion medium) [µg/mL]	MIC CP 204 (Pseudomonas aeruginosa; Brain Heart Infusion medium) [µg/mL]	MIC M 2 (Pseudomonas aeruginosa; Brain Heart Infusion medium) [µg/mL]	MIC PA 14 (Pseudomonas aeruginosa; Brain Heart Infusion medium) [µg/mL]	MIC PAK (Pseudomonas aeruginosa; Brain Heart Infusion medium) [µg/mL]	MIC WR 5 (Pseudomonas aeruginosa; Brain Heart Infusion medium) [µg/mL]	MIC PAO 1 (Pseudomonas aeruginosa; Mueller Hinton medium) [µg/mL]	MIC GM (geometric mean of the MIC values) (Pseudomonas aeruginosa; Mueller Hinton medium) [µg/mL]	MIC CP 204 (Pseudomonas aeruginosa; Mueller Hinton medium) [µg/mL]	MIC M 2 (Pseudomonas aeruginosa; Mueller Hinton medium) [µg/mL]	MIC PA 14 (Pseudomonas aeruginosa; Mueller Hinton medium) [µg/mL]	MIC PAK (Pseudomonas aeruginosa; Mueller Hinton medium) [µg/mL]	MIC WR 5 (Pseudomonas aeruginosa; Mueller Hinton medium) [µg/mL]	other results
CC[C@@H](C)[C@@H](NC(=O)[C@@H](C)NC(=O)[C@@H](CCCCN)NC(=O)[C@@H](CC(C)C)NC(=O)[C@@H](CC(C)C)NC(=O)[C@H](NC(=O)[C@@H](CCCCN)NC(=O)[C@@H](CC(C)C)NC(=O)[C@@H](C)NC(=O)[C@@H](CCCCN)NC(=O)[C@@H](CCCCN)NC(=O)[C@@H](CCCCN)NC(=O)[C@@H](C)NC(=O)[C@@H](CCCCN)NC(=O)[C@@H](CO)NC(=O)[C@@H](Cc1ccccc1)NC(=O)[C@H](NC(=O)[C@@H](CCCCN)NC(=O)[C@@H](CC(C)C)NC(=O)[C@@H](Cc1ccccc1)NC(=O)[C@@H](CO)NC(=O)[C@@H](CCCCN)NC(=O)[C@@H](Cc1c[nH]c2ccccc12)NC(=O)[C@@H](CO)NC(C)=O)[C@H](C)O)[C@H](C)O)C(=O)N[C@H](CO)C(=O)N[C@H](CCCCN)C(N)=O [Peptide D21, Ac-SWKSFLKTFSKAKKKALKTLLKAISK-amide]	88.5 µg/mL and 29.3 µM	1.1 (≈ 3.33 µg/mL)	7.3 (≈ 22.1 µg/mL)	93.77 min	6.00	15.6 (≈ 5.16 µM)	6.2	15.6 (≈ 5.16 µM)	3.9 (≈ 1.29 µM)	3.9 (≈ 1.29 µM)	3.9 (≈ 1.29 µM)	3.9 (≈ 1.29 µM)	7.8 (≈ 2.58 µM)	6.2	15.6 (≈ 5.16 µM)	15.6 (≈ 5.16 µM)	0.5 (≈ 0.165 µM)	3.9 (≈ 1.29 µM)	15.6 (≈ 5.16 µM)	–
CC[C@@H](C)[C@@H](NC(=O)[C@@H](C)NC(=O)[C@@H](CO)NC(=O)[C@@H](CC(C)C)NC(=O)[C@@H](CC(C)C)NC(=O)[C@H](NC(=O)[C@@H](CCCCN)NC(=O)[C@@H](CC(C)C)NC(=O)[C@@H](C)NC(=O)[C@@H](CCCCN)NC(=O)[C@@H](CCCCN)NC(=O)[C@@H](CCCCN)NC(=O)[C@@H](C)NC(=O)[C@@H](CCCCN)NC(=O)[C@@H](CO)NC(=O)[C@@H](Cc1ccccc1)NC(=O)[C@H](NC(=O)[C@@H](CO)NC(=O)[C@@H](CC(C)C)NC(=O)[C@@H](Cc1ccccc1)NC(=O)[C@@H](CO)NC(=O)[C@@H](CO)NC(=O)[C@@H](Cc1c[nH]c2ccccc12)NC(=O)[C@@H](CO)NC(C)=O)[C@H](C)O)[C@H](C)O)C(=O)N[C@H](CO)C(=O)N[C@H](CO)C(N)=O [Peptide D17, Ac-SWSSFLSTFSKAKKKALKTLLSAISS-amide]	62 µg/mL and 21.7 µM	0.7 (≈ 2 µg/mL)	19.7 (≈ 56.3 µg/mL)	98.81 min	7.96	31.3 (≈ 11 µM)	35.1	62.5 (≈ 21.9 µM)	31.3 (≈ 11 µM)	15.6 (≈ 5.46 µM)	31.3 (≈ 11 µM)	62.5 (≈ 21.9 µM)	15.6 (≈ 5.46 µM)	22.1	31.3 (≈ 11 µM)	31.3 (≈ 11 µM)	15.6 (≈ 5.46 µM)	15.6 (≈ 5.46 µM)	31.3 (≈ 11 µM)	MIC (Acinetobacter baumannii; 24 h): 0.7 µM (≈ 2 µg/mL)
CC[C@@H](C)[C@@H](NC(=O)[C@@H](C)NC(=O)[C@@H](CCCCN)NC(=O)[C@@H](CC(C)C)NC(=O)[C@@H](CC(C)C)NC(=O)[C@H](NC(=O)[C@@H](CCCCN)NC(=O)[C@@H](CC(C)C)NC(=O)[C@@H](C)NC(=O)[C@@H](CCCCN)NC(=O)[C@@H](CCCCN)NC(=O)[C@@H](CCCCN)NC(=O)[C@@H](C)NC(=O)[C@@H](CCCCN)NC(=O)[C@@H](CO)NC(=O)[C@@H](Cc1ccccc1)NC(=O)[C@H](NC(=O)[C@@H](CCCCN)NC(=O)[C@@H](CC(C)C)NC(=O)[C@@H](Cc1ccccc1)NC(=O)[C@@H](CO)NC(=O)[C@@H](CCCCN)NC(=O)[C@@H](Cc1c[nH]c2ccccc12)NC(=O)[C@@H](CCCCN)NC(C)=O)[C@H](C)O)[C@H](C)O)C(=O)N[C@H](CO)C(=O)N[C@H](CCCCN)C(N)=O [Peptide D22, Ac-KWKSFLKTFSKAKKKALKTLLKAISK-amide]	249 µg/mL and 81.3 µM	0.8 (≈ 2.45 µg/mL)	12.1 (≈ 37.1 µg/mL)	90.7 min and 90.67 min	5.13	15.6 (≈ 5.09 µM)	9.8	31.3 (≈ 10.2 µM)	3.9 (≈ 1.27 µM)	3.9 (≈ 1.27 µM)	7.8 (≈ 2.55 µM)	15.6 (≈ 5.09 µM)	3.9 (≈ 1.27 µM)	7.0	31.3 (≈ 10.2 µM)	15.6 (≈ 5.09 µM)	0.5 (≈ 0.163 µM)	3.9 (≈ 1.27 µM)	31.3 (≈ 10.2 µM)	Acinetobacter baumannii MICGM (Acinetobacter baumannii; geometric mean, 11 different isolates, 24 hours at 37° C.): 0.8 µM; Pseudomonas aeruginosa MICGM (Pseudomonas aeruginosa; geometric mean, 6 different isolates, 24 hours at 37° C.): 2.3 µM
